Patent publication EP0432442A1, “ACAT inhibitors” (priority 1989, dated 1991)

Legend:
[1] = molecular target: acyl-CoA: cholesterol acyltransferase (ACAT); test: in vitro ACAT inhibition: formation of radiolabeled cholesterol oleate from radiolabeled oleic acid in rabbit intestinal microsomes; type: biochemical; conditions: tissue preparation containing rabbit intestinal microsomes
Experimental: The ability of representative compounds of the present invention to inhibit ACAT was measured using an in vitro test more fully described in F. J. Field and R. G. Salone, Biochemica et Biophysica 712:557-570 (1982). The test assesses the ability of a test compound to inhibit the acylation of cholesterol by oleic acid by measuring the amount of radiolabeled cholesterol oleate formed from radiolabeled oleic acid in a tissue preparation containing rabbit intestinal microsomes.
The data appear in Table 1 where they are expressed in IC50 values; i.e., the concentration of test compound required to inhibit 50% […] of the enzyme.

[2] = test system: male Sprague-Dawley rats; test: in vivo screen designated APCC: blood cholesterol in rats fed the PCC diet; conditions: blood cholesterol vs vehicle (CMC/Tween); dosed at 4 PM, PCC diet with 1% or 0.5% cholic acid overnight, sacrificed at 8 AM; dose not given
Description: In one in vivo screen designated APCC. male Sprague-Dawley rats (200 to 225 g) were randomly divided into treatment groups and dosed at 4 PM with either vehicle (CMCTween) or suspensions of compounds in vehicle. The normal chow diet was then replaced with the PCC diet with either 1% or 0.5^00 cholic acid, as indicated. The rats consumed this diet ad libitum during the night and were sacrificed at 8 AM to obtain blood samples for cholesterol analysis using standard procedures. Statistical differences between mean cholesterol values for the same vehicle were determined using analysis of variance followed by Fisher's least significant test.

Compound	IC50 [1]	% Change (mg/dl) [2]
COCCCCCC(=O)NC(CNC(=O)Nc1c(C(C)C)cccc1C(C)C)c1ccccc1 (racemic) [Example 10, (±)-N-[2-[[[[2,6-bis(1-methylethyl)phenyl]amino]carbonyl]amino]-1-phenylethyl]-6-methoxyhexanamide]	390 nM	
CCCCCCCNC(CNC(=O)Nc1c(C(C)C)cccc1C(C)C)c1ccccc1 (racemic) [Example 8, (±)-N-[2,6-bis(1-methylethyl)phenyl]-N'-[2-heptylamino-2-phenylethyl]urea]	110 nM	-25%
CCCCCCC(=O)NC(CNC(=O)Nc1c(C(C)C)cccc1C(C)C)c1ccccc1 (racemic) [Example 7, (±)-N-[2-[[[[2,6-bis(1-methylethyl)phenyl]amino]carbonyl]amino]-1-phenylethyl]heptanamide]	150 nM	
CCCCCCCCCCCCNCC(CNC(=O)Nc1c(C(C)C)cccc1C(C)C)c1ccccc1 (racemic) [Example 11, (±)-N-[2,6-bis(1-methylethyl)phenyl]-N'-[3-dodecylamino-2-phenylpropyl]urea]		-54%
CC(C)c1cccc(C(C)C)c1NC(=O)NCC(NC(=O)CCCCCBr)c1ccccc1 (racemic) [Example 9, (±)-N-[2-[[[[2,6-bis(1-methylethy))phenyl]amino]carbonyl]amino]-1-phenylethyl]-6-bromohexanamide]	380 nM	-36%

More lines, main results first:

IC50 [1]	Compound	% Change (mg/dl) [2]
530 nM	CC(C)c1cccc(C(C)C)c1NC(=O)NCC(NC(=O)c1ccccc1)c1ccccc1 (racemic) [Example 4, (±)-N-[2-[[[[2,6-bis(1-methylethyl)phenyl]amino]carbonyl]amino]-1-phenylethyl]benzenecarboxamide]	
51 nM	CC(C)c1cccc(C(C)C)c1NC(=O)NCC(NCc1ccccc1)c1ccccc1 (racemic) [Example 5, (±)-N-(2,6-bis(1-methylethyl)phenyl]-N'-[2-phenylmethylamino)-2-phenylethyl]urea]	-53%
80 nM	CC(C)c1cccc(C(C)C)c1NC(=O)NCC(NC(=O)c1ccccn1)c1ccccc1 (racemic) [Example 12, (±)-N-[2-[[[[2,6-bis(1-methylethyl)phenyl]amino]carbonyl]amino]-1-phenethyl-2-pyridinylarnide]	
